From US11098055B2, “Ester ACC inhibitors and uses thereof” (Gilead Apollo, LLC, priority 2015, dated 2021)

Key:
hACC2 = hACC2 (Homo sapiens, UniProt O00763); test: In vitro ACC2 inhibition assay (ADP-Glo), human ACC2; assay type: biochemical
Experimental: (§1) An exemplary procedure for the in vitro ACC inhibition assay, which can be used to determine the inhibitory action of compounds of the invention toward either human (hACC2) or fungal (fACC2) ACC2, follows. The ADP-Glo™ Kinase Assay kit from Promega was used. The ADP-Glo™ Kinase Assay is a luminescent ADP detection assay to measure enzymatic activity by quantifying the amount of ADP produced during an enzyme reaction. The assay is performed in two steps; first, after the enzyme reaction, an equal volume of ADP-Glo™ Reagent is added to terminate the reaction and deplete the remaining ATP. Second, the Kinase Detection Reagent is added to simultaneously convert ADP to ATP and allow the newly synthesized ATP to be measured using a luciferase/luciferin reaction. Luminescence can be correlated to ADP concentrations by using an ATP-to-ADP conversion curve. The detailed procedure is as follows. 50 μL of the compound being tested (600 μM in DMSO) was added to a 384-well dilution plate. The compound was diluted 1:3 in succession in DMSO for each row for 11 wells. 0.5 μL ACC2 working solution was added to 384-well white Optiplate assay plate. 0.5 μL diluted compound solution in each column from step 2 was added to assay plate, each row containing 2 replicates. For the last 2 rows, 0.5 μL negative control (DMSO) was added in one row and 0.5 μL positive control (compound I-97) in the other. The plates were incubated at room temperature for 15 minutes. 5 μL substrate working solution was added to each well to initiate reaction. Final ACC2 reaction concentrations consist of: 5 nM ACC2, 20 μM ATP, 20 μM acetyl-CoA, 12 mM NaHCO3, 0.01% Brij35, 2 mM DTT, 5% DMSO, test compound concentrations: 30 μM, 10 μM, 3.33 μM, 1.11 μM, 0.37 μM, 0.123 μM, 0.0411 μM, 0.0137 μM, 0.00457 μM, 0.00152 μM, and 0.00051 μM. Plates were incubated at room temperature for 60 minutes. 10 μL ADP glo reagent was added. Plates were incubated at room temperature for 40 minutes. 20 μL kinase detection reagent was added. Plates were incubated at room temperature for 40 minutes, and then read on a Perkin Elmer EnVision 2104 plate reader for luminescence as Relative Light Units (RLU).
(§2) Data for each concentration, as well as the positive and negative controls, were averaged, and the standard deviation calculated. Percent inhibition was calculated by the formula: 100×(average negative control−compound)/(average negative control−average positive control). The IC50 for each compound was calculated by fitting the data with a non-linear regression equation: Y=Bottom+(Top−Bottom)/(1+10^((Log IC50−X)*HillSlope)), where X is the log of compound concentration and Y is percent inhibition.

fACC2 = fACC2 (UniProt Q00955); test: In vitro ACC2 inhibition assay (ADP-Glo), fungal ACC2; assay type: biochemical
Experimental: as §1, §2

Sequence of hACC2 (O00763 whole entry): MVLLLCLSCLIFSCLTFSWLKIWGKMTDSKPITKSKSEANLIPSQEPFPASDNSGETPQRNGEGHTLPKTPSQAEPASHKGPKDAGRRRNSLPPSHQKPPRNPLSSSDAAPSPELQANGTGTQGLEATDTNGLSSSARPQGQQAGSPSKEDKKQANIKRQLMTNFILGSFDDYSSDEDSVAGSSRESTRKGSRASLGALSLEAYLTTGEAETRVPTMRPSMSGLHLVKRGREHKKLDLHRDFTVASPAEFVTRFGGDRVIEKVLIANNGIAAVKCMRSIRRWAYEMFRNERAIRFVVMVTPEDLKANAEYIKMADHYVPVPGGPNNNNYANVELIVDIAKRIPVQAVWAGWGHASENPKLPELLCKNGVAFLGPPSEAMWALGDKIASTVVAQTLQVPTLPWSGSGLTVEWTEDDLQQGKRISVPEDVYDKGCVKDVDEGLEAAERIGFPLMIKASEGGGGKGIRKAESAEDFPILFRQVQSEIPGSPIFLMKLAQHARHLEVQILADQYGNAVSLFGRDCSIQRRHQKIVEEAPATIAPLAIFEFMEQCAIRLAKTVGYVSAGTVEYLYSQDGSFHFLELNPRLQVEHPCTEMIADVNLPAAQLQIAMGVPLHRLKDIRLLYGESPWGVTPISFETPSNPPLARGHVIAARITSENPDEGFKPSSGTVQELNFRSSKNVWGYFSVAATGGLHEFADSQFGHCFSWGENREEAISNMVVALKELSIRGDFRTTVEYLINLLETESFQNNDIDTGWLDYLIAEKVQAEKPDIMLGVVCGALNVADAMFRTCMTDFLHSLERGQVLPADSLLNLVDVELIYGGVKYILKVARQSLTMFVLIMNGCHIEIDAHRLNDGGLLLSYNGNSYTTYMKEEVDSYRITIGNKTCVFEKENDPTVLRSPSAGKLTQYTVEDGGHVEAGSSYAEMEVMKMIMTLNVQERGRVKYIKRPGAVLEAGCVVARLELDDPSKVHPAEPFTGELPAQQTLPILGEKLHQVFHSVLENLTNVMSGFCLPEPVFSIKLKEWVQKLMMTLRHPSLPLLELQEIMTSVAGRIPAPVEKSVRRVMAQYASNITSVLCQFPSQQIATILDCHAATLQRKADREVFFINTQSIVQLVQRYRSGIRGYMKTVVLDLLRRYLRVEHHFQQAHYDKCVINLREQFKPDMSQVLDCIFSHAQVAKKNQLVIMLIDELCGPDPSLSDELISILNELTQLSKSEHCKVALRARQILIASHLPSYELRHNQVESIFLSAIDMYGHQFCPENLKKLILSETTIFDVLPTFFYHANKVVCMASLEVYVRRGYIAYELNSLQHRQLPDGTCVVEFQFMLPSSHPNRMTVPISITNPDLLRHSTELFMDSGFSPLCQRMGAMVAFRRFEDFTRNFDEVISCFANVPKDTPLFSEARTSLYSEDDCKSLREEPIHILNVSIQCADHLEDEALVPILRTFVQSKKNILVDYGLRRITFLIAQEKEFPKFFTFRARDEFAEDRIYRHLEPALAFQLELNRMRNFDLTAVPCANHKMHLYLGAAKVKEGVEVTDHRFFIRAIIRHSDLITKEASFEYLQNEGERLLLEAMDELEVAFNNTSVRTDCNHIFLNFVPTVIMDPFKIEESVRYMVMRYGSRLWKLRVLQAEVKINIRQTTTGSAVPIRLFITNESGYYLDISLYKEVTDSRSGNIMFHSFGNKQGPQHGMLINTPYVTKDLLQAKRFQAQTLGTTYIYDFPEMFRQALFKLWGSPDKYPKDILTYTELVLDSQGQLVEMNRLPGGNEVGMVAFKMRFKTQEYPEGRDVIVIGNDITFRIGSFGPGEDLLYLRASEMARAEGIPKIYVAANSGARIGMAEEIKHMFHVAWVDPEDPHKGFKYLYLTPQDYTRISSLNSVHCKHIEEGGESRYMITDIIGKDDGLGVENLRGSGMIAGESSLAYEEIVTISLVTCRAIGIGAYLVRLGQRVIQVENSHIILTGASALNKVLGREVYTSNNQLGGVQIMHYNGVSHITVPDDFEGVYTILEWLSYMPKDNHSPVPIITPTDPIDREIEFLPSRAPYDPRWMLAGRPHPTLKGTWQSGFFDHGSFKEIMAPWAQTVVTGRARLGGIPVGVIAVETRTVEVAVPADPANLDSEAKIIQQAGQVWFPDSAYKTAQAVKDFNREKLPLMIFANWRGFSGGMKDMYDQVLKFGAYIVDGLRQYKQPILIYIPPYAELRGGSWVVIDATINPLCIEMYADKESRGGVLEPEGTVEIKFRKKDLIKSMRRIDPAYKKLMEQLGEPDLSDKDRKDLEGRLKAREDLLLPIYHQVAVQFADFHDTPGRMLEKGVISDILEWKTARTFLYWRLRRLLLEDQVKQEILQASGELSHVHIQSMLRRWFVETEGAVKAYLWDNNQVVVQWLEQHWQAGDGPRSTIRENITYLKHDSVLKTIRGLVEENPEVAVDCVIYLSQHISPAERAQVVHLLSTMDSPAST
Sequence of fACC2 (Q00955 whole entry): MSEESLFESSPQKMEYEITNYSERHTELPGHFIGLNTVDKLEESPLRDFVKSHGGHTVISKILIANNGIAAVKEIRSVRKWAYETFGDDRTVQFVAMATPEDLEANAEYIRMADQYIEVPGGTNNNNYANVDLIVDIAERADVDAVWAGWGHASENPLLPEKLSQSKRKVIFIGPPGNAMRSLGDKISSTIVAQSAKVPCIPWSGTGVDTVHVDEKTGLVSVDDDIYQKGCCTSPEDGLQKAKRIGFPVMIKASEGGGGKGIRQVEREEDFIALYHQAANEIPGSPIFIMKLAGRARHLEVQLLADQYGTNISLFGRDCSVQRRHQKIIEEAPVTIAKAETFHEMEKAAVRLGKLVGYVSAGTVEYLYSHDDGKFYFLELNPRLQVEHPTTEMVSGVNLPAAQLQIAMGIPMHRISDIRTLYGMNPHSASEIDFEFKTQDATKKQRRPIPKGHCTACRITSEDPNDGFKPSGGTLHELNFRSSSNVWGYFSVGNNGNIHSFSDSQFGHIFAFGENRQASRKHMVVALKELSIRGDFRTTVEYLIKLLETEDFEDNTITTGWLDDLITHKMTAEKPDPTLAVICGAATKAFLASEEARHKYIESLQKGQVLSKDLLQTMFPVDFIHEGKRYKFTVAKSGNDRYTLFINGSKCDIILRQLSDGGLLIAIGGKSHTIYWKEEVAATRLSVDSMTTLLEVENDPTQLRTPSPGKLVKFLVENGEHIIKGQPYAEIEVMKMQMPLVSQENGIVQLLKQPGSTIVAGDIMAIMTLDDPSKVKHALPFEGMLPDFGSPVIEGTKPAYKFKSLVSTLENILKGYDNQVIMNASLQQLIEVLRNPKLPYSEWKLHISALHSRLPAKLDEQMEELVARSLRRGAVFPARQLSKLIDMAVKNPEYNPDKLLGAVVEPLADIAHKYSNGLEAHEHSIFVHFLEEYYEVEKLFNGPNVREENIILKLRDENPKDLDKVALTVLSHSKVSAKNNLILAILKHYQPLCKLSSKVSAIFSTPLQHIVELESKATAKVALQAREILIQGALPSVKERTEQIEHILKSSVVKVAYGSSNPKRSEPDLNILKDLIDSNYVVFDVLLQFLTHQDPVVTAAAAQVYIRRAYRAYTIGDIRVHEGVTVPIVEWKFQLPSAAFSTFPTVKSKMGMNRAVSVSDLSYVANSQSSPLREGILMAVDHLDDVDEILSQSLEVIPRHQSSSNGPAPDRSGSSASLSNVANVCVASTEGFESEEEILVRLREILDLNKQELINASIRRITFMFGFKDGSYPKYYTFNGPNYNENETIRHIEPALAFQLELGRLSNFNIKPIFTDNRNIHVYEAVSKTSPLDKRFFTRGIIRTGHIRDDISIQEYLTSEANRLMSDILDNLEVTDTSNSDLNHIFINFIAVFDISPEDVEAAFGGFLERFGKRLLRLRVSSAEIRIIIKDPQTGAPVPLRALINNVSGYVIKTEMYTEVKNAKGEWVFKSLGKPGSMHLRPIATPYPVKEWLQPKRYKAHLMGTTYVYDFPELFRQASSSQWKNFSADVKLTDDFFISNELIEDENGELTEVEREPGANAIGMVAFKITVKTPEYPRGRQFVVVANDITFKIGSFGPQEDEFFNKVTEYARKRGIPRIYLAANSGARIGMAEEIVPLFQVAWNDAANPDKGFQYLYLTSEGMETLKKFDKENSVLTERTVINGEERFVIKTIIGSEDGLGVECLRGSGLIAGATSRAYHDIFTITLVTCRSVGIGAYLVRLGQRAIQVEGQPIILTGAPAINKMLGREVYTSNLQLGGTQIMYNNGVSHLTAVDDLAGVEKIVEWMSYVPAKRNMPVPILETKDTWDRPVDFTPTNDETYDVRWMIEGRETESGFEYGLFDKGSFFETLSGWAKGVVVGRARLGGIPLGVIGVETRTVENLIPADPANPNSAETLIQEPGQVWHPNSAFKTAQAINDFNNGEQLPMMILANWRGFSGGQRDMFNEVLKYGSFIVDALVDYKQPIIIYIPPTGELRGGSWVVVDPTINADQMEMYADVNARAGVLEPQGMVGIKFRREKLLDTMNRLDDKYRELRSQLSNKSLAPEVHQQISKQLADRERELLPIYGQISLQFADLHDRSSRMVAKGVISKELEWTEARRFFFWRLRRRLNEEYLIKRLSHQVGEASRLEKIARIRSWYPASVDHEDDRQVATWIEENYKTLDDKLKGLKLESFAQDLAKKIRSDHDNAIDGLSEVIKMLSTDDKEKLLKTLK

Row | SMILES | IC50 (hACC2; Table 2a) [nM] | IC50 (hACC2; Table 2b (additional results)) [nM] | IC50 (fACC2; Table 2a) [nM] | IC50 (fACC2; Table 2b (additional results)) [nM]
1 | CCOC(=O)c1sc2c(c1C)c(=O)n(C(C)(C)C(=O)N1CCCCC1)c(=O)n2C[C@H](OC1CCOCC1)c1ccccc1OC [Compound I-2, ethyl (R)-1-(2-(2-methoxyphenyl)-2-((tetrahydro-2H-pyran-4-yl)oxy)ethyl)-5-methyl-3-(2-methyl-1-oxo-1-(piperidin-1-yl)propan-2-yl)-2,4-dioxo-1,2,3,4-tetrahydrothieno[2,3-d]pyrimidine-6-carboxylate] | 10 to 40 | 10 to 40 | 0.6 to 3 | 0.3 to 3
2 | CCOC(=O)c1sc2c(c1C)c(=O)n(C(C)(C)C(=O)N1CCCC1)c(=O)n2C[C@H](OC1CCOCC1)c1ccccc1OC [Compound I-3, ethyl (R)-1-(2-(2-methoxyphenyl)-2-((tetrahydro-2H-pyran-4-yl)oxy)ethyl)-5-methyl-3-(2-methyl-1-oxo-1-(pyrrolidin-1-yl)propan-2-yl)-2,4-dioxo-1,2,3,4-tetrahydrothieno[2,3-d]pyrimidine-6-carboxylate] | 10 to 40 | 10 to 40 | 0.6 to 3 | 0.3 to 3
3 | CCNC(=O)C(C)(C)n1c(=O)c2c(C)c(C(=O)OCC)sc2n(C[C@H](OC(C)C)c2ccccc2OC)c1=O [Compound I-4, (R)-ethyl 3-(1-(ethylamino)-2-methyl-1-oxopropan-2-yl)-1-(2-isopropoxy-2-(2-methoxyphenyl)ethyl)-5-methyl-2,4-dioxo-1,2,3,4-tetrahydrothieno[2,3-d]pyrimidine-6-carboxylate] | 10 to 40 | 10 to 40 | 3 to 10 | 3 to 10
4 | CCOC(=O)c1sc2c(c1C)c(=O)n(C(C)(C)C(=O)N1CCOCC1)c(=O)n2C[C@H](OC(C)C)c1ccccc1OC [Compound I-5, (R)-ethyl 1-(2-isopropoxy-2-(2-methoxyphenyl)ethyl)-5-methyl-3-(2-methyl-1-morpholino-1-oxopropan-2-yl)-2,4-dioxo-1,2,3,4-tetrahydrothieno[2,3-d]pyrimidine-6-carboxylate] | 10 to 40 | 10 to 40 | 3 to 10 | 3 to 10
5 | CCOC(=O)c1sc2c(c1C)c(=O)n(C(C)(C)C(=O)N1CCCCC1)c(=O)n2C[C@H](OC(C)C)c1ccccc1OC [Compound I-6, (R)-ethyl 1-(2-isopropoxy-2-(2-methoxyphenyl)ethyl)-5-methyl-3-(2-methyl-1-oxo-1-(piperidin-1-yl)propan-2-yl)-2,4-dioxo-1,2,3,4-tetrahydrothieno[2,3-d]pyrimidine-6-carboxylate] | 10 to 40 | 10 to 40 | 0.6 to 3 | 0.3 to 3
6 | CCOC(=O)c1sc2c(c1C)c(=O)n(C(C)(C)C(=O)N1CCCC1)c(=O)n2C[C@H](OC(C)C)c1ccccc1OC [Compound I-7, (R)-ethyl 1-(2-isopropoxy-2-(2-methoxyphenyl)ethyl)-5-methyl-3-(2-methyl-1-oxo-1-(pyrrolidin-1-yl)propan-2-yl)-2,4-dioxo-1,2,3,4-tetrahydrothieno[2,3-d]pyrimidine-6-carboxylate] | 10 to 40 | 10 to 40 | 0.6 to 3 | 0.3 to 3
7 | CCOC(=O)c1sc2c(c1C)c(=O)n(C(C)(C)C(=O)NC(C)C)c(=O)n2C[C@H](OC1CCOCC1)c1ccccc1OC [Compound I-8, (R)-ethyl 3-(1-(isopropylamino)-2-methyl-1-oxopropan-2-yl)-1-(2-(2-methoxyphenyl)-2-((tetrahydro-2H-pyran-4-yl)oxy)ethyl)-5-methyl-2,4-dioxo-1,2,3,4-tetrahydrothieno[2,3-d]pyrimidine-6-carboxylate] | 10 to 40 | 10 to 40 | 0.6 to 3 | 0.3 to 3
8 | CCOC(=O)c1sc2c(c1C)c(=O)n(C(C)(C)C(=O)NC(C)C)c(=O)n2C[C@H](OC(C)C)c1ccccc1OC [Compound I-9, (R)-ethyl 1-(2-isopropoxy-2-(2-methoxyphenyl)ethyl)-3-(1-(isopropylamino)-2-methyl-1-oxopropan-2-yl)-5-methyl-2,4-dioxo-1,2,3,4-tetrahydrothieno[2,3-d]pyrimidine-6-carboxylate] | 10 to 40 | 10 to 40 | 0.6 to 3 | 0.3 to 3
9 | CCOC(=O)c1sc2c(c1C)c(=O)n(C(C)(C)C(N)=O)c(=O)n2C[C@H](OCCOC)c1cc(F)ccc1OC [Compound I-10, (R)-ethyl 3-(1-amino-2-methyl-1-oxopropan-2-yl)-1-(2-(5-fluoro-2-methoxyphenyl)-2-(2-methoxyethoxy)ethyl)-5-methyl-2,4-dioxo-1,2,3,4-tetrahydrothieno[2,3-d]pyrimidine-6-carboxylate] | ≥ 40 | ≥ 40 | 3 to 10 | 3 to 10
10 | CCOC(=O)c1sc2c(c1C)c(=O)n(C(C)(C)C(=O)NC(C)C)c(=O)n2C[C@H](OCCOC)c1cc(F)ccc1OC [Compound I-11, (R)-ethyl 1-(2-(5-fluoro-2-methoxyphenyl)-2-(2-methoxy-ethoxy)ethyl)-3-(1-(isopropylamino)-2-methyl-1-oxopropan-2-yl)-5-methyl-2,4-dioxo-1,2,3,4-tetrahydrothieno[2,3-d]pyrimidine-6-carboxylate] | 10 to 40 | 10 to 40 | 0.6 to 3 | 0.3 to 3
11 | CCOC(=O)c1sc2c(c1C)c(=O)n(C(C)(C)C(=O)N1CCCC1)c(=O)n2C[C@H](OCCO)c1cc(F)ccc1OC [Compound I-12, (R)-ethyl 1-(2-(5-fluoro-2-methoxyphenyl)-2-(2-hydroxy-ethoxy)ethyl)-5-methyl-3-(2-methyl-1-oxo-1-(pyrrolidin-1-yl)propan-2-yl)-2,4-dioxo-1,2,3,4-tetrahydrothieno[2,3-d]pyrimidine-6-carboxylate] | 3 to 10 | 3 to 10 | 0.6 to 3 | 0.3 to 3
12 | CCOC(=O)c1sc2c(c1C)c(=O)n(C(C)(C)C(=O)N1CCCC1)c(=O)n2C[C@H](OCCOC)c1cc(F)ccc1OC [Compound I-13, (R)-ethyl 1-(2-(5-fluoro-2-methoxyphenyl)-2-(2-methoxy-ethoxy)ethyl)-5-methyl-3-(2-methyl-1-oxo-1-(pyrrolidin-1-yl)propan-2-yl)-2,4-dioxo-1,2,3,4-tetrahydrothieno[2,3-d]pyrimidine-6-carboxylate] | 10 to 40 | – | 0.6 to 3 | –
13 | CCOC(=O)c1sc2c(c1C)c(=O)n(C(C)(C)C(N)=O)c(=O)n2C[C@H](OCCC#N)c1cc(F)ccc1OC [Compound I-14, (R)-ethyl 3-(1-amino-2-methyl-1-oxopropan-2-yl)-1-(2-(2-cyanoethoxy)-2-(5-fluoro-2-methoxyphenyl)ethyl)-5-methyl-2,4-dioxo-1,2,3,4-tetrahydro-thieno[2,3-d]pyrimidine-6-carboxylate] | 3 to 10 | – | 0.6 to 3 | 0.3 to 3
14 | CCOC(=O)c1sc2c(c1C)c(=O)n(C(C)(C)C(=O)NC(C)C)c(=O)n2C[C@H](OCCC#N)c1cc(F)ccc1OC [Compound I-15, (R)-ethyl 1-(2-(2-cyanoethoxy)-2-(5-fluoro-2-methoxy-phenyl)ethyl)-3-(1-(isopropylamino)-2-methyl-1-oxopropan-2-yl)-5-methyl-2,4-dioxo-1,2,3,4-tetrahydrothieno[2,3-d]pyrimidine-6-carboxylate] | 10 to 40 | 3 to 10 | 0.6 to 3 | 0.3 to 3
15 | CCOC(=O)c1sc2c(c1C)c(=O)n(C(C)(C)C(=O)N1CCCC1)c(=O)n2C[C@H](OCCC#N)c1cc(F)ccc1OC [Compound I-16, (R)-ethyl 1-(2-(2-cyanoethoxy)-2-(5-fluoro-2-methoxy-phenyl)ethyl)-5-methyl-3-(2-methyl-1-oxo-1-(pyrrolidin-1-yl)propan-2-yl)-2,4-dioxo-1,2,3,4-tetrahydrothieno[2,3-d]pyrimidine-6-carboxylate] | 3 to 10 | – | 0.6 to 3 | 0.3 to 3
16 | CCOC(=O)c1sc2c(c1C)c(=O)n(C(C)(C)C(=O)NC(C)C)c(=O)n2C[C@H](O)c1cc(F)ccc1OC [Compound I-19, (R)-ethyl 1-(2-(5-fluoro-2-methoxyphenyl)-2-hydroxyethyl)-3-(1-(isopropylamino)-2-methyl-1-oxopropan-2-yl)-5-methyl-2,4-dioxo-1,2,3,4-tetrahydrothieno[2,3-d]pyrimidine-6-carboxylate] | – | 3 to 10 | – | –
